Earlier results in patent EP4527389A1 (Laboratorios Farmacéuticos Rovi S.A., priority 2022, dated 2023).

target: CYP2D6 (cytochrome P450 2D6) enzyme (Homo sapiens, UniProt P10635); details: three categories: strong, moderate, weak
Sequence (P10635 whole entry): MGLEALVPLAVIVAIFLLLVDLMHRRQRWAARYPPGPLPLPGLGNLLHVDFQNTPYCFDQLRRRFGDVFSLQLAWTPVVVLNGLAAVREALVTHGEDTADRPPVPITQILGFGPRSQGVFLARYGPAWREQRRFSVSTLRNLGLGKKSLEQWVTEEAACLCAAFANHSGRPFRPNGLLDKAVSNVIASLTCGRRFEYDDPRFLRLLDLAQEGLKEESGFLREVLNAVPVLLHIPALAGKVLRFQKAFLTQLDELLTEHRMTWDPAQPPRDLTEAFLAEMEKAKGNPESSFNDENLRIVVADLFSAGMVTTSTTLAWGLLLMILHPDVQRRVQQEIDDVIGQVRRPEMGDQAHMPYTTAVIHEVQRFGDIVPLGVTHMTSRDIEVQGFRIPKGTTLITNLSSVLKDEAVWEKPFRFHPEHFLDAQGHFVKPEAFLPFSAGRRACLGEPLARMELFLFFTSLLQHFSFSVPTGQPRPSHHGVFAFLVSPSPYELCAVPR

**Q.** For `CN(C/C=C/C#CC(C)(C)C)Cc1cccc2ccccc12` [terbinafine], which “CYP2D6 enzyme inhibitor category” value is on record?
**A.** strong inhibitor

**Q.** For `CN(C)CCC[C@@]1(c2ccc(F)cc2)OCc2cc(C#N)ccc21` [escitalopram], which “CYP2D6 enzyme inhibitor category” value is on record?
**A.** weak inhibitor

**Q.** Which “CYP2D6 enzyme inhibitor category” value does the source give for `Fc1ccc([C@@H]2CCNC[C@H]2COc2ccc3c(c2)OCO3)cc1` [paroxetine] here?
**A.** strong inhibitor

**Q.** For `C=C[C@H]1C[N@@]2CC[C@H]1C[C@@H]2[C@@H](O)c1ccnc2ccc(OC)cc12` [quinidine], which “CYP2D6 enzyme inhibitor category” value is on record?
**A.** strong inhibitor

**Q.** For `C[C@@H](NCCCc1cccc(C(F)(F)F)c1)c1cccc2ccccc12` [cinacalcet], which “CYP2D6 enzyme inhibitor category” value is on record?
**A.** moderate inhibitor

**Q.** Which “CYP2D6 enzyme inhibitor category” value does the source give for `CC(CCc1ccccc1)NCC(O)c1ccc(O)c(C(N)=O)c1` (stereo not drawn) [labetalol] here?
**A.** weak inhibitor

**Q.** Which “CYP2D6 enzyme inhibitor category” value does the source give for `C[C@H]1CNCCc2ccc(Cl)cc21` [lorcaserin] here?
**A.** moderate inhibitor

**Q.** Which “CYP2D6 enzyme inhibitor category” value does the source give for `Nc1nc(CC(=O)Nc2ccc(CCNC[C@H](O)c3ccccc3)cc2)cs1` [mirabegron] here?
**A.** moderate inhibitor

**Q.** With `CN/C(=N/CCSCc1nc[nH]c1C)NC#N` [cimetidine] as the molecule, how does the “CYP2D6 enzyme inhibitor category” value read?
**A.** weak inhibitor

**Q.** With `CN1C(=O)CC(=O)N(c2ccccc2)c2cc(Cl)ccc21` [clobazam] as the molecule, how does the “CYP2D6 enzyme inhibitor category” value read?
**A.** weak inhibitor

**Q.** For `Cc1ccc(-c2cc(C(F)(F)F)nn2-c2ccc(S(N)(=O)=O)cc2)cc1` [celecoxib], which “CYP2D6 enzyme inhibitor category” value is on record?
**A.** weak inhibitor

**Q.** Which “CYP2D6 enzyme inhibitor category” value does the source give for `C[C@]12CC[C@H](O)CC1=CC[C@@H]1[C@@H]2CC[C@]2(C)C(c3cccnc3)=CC[C@@H]12` [abiraterone] here?
**A.** moderate inhibitor

**Q.** For `CCCS(=O)(=O)Nc1ccc(F)c(C(=O)c2c[nH]c3ncc(-c4ccc(Cl)cc4)cc23)c1F` [vemurafenib], which “CYP2D6 enzyme inhibitor category” value is on record?
**A.** weak inhibitor

**Q.** Which “CYP2D6 enzyme inhibitor category” value does the source give for `CC(C)c1nc(CN(C)C(=O)N[C@@H](CCN2CCOCC2)C(=O)N[C@H](CC[C@H](Cc2ccccc2)NC(=O)OCc2cncs2)Cc2ccccc2)cs1` [cobicistat] here?
**A.** weak inhibitor

**Q.** For `CN[C@H]1CC[C@@H](c2ccc(Cl)c(Cl)c2)c2ccccc21` [sertraline], which “CYP2D6 enzyme inhibitor category” value is on record?
**A.** weak inhibitor

test system: not given; details: daily paroxetine 20 mg in patients stabilized on risperidone (4 to 8 mg/day)

**Q.** With `Fc1ccc([C@@H]2CCNC[C@H]2COc2ccc3c(c2)OCO3)cc1` [paroxetine] as the molecule, how does the “decrease of 9-hydroxyrisperidone concentrations” value read?
**A.** approximately 10%

**Q.** What about the “increase of concentrations of the active moiety (the sum of risperidone plus 9-hydroxyrisperidone)” value of the same molecule?
**A.** approximately 1.4 fold

**Q.** And the “increase of mean plasma concentrations of risperidone” value?
**A.** approximately 4 fold
